The source made the active and inactive calls. No cut-off for these calls is given here.

The subject of data set [1] is PC-12. The data set can be described thus: Neuroprotective activity against 6-OHDA -induced toxicity in rat PC12 cells assessed as increase in cell viability at 20 uM pretreated for 24 hrs followed by 6-OHDA challenge and measured after 24 hrs by MTT assay. The format is functional, cell-based. Background: Tetrazolium assays rely on reduction of a dye to a coloured formazan, in cell work by metabolically active cells.

The test system of data set [2] is PC-12. The data set can be described thus: Neuroprotective activity against H2O2-induced toxicity in rat PC12 cells assessed as increase in cell viability at 20 uM pretreated for 24 hrs followed by H2O2 challenge and measured after 24 hrs by MTT assay. The format is functional, cell-based.
Data set [3] is described as follows: Lipophilicity, log P of the compound. The format is physicochemical. To be noted: octanol/water.
Data set [4] deals with PC-12. Nature of the data set: Induction of neurite outgrowth in NGF-induced rat PC12 cells assessed as neurite bearing cells at 20 uM cotreated with 20 ng/ml NGF incubated for 48 hrs by light microscopy. The format is functional.
For data set [5], the system named is BV-2. The data set can be described thus: Antiinflammatory activity in LPS-induced mouse BV2 cells assessed as reduction in iNOS mRNA expression at 20 uM incubated for 24 hrs by RT-PCR analysis method. The format is functional, cell-based.
Data set [6] has as its system BV-2. The data set can be described thus: Antiinflammatory activity in mouse BV2 cells assessed as reduction in LPS-induced NO production at 20 uM incubated for 24 hrs by Griess method. The class given is functional. The following applies: for inhibition at 20 µM: BV-2, 24 h.
In data set [7] the test system is BV-2. Nature of the data set: Neuroprotective activity against microglia-conditioned medium-induced cytotoxicity in rat PC12 cells exposed to conditioned medium derived from 24 hrs compound pre-treated mouse BV2 cells assessed as increase in cell viability at 5 to 20 uM by MTT assay. The class given is functional, cell-based.
Data set [8] relates to BV-2. Nature of the data set: Neuroprotective activity against microglia-conditioned medium-induced cytotoxicity in rat PC12 cells exposed to conditioned medium derived from mouse BV2 cells assessed as increase in cell viability at 5 to 20 uM by MTT assay. The format is functional, cell-based.
Data set [9] deals with BV-2. The data set can be described thus: Antiinflammatory activity in LPS induced mouse BV2 cells assessed as reduction in iNOS expression at 20 uM incubated for 24 hrs by DAPI based fluorescence microscopic method. The format is functional, cell-based.
Data set [10] has as its system BV-2. The data set can be described thus: Antiinflammatory activity in LPS induced mouse BV2 cells assessed as reduction in IL-6 incubated for 24 hrs by ELISA method. The format is functional, cell-based. In general terms: In an ELISA, binding on a coated surface is turned into a signal by an enzyme label.
For data set [11], the system named is BV-2. Nature of the data set: Antiinflammatory activity in mouse BV2 cells assessed as reduction in LPS-induced NO production incubated for 24 hrs by Griess method. The format is functional, cell-based. A general note: Nitrite, measured by Griess reagent, commonly stands in for NO production.
The subject of data set [12] is BV-2. Nature of the data set: Antiinflammatory activity in LPS induced mouse BV2 cells assessed as reduction in TNFalpha incubated for 6 hrs by ELISA method. The format is functional, cell-based.
The subject of data set [13] is BV-2. Nature of the data set: Cytotoxicity in mouse BV2 cells assessed as reduction in cell viability. The class given is cell-based.
The test system of data set [14] is PC-12. Nature of the data set: Induction of neurite outgrowth in NGF-induced rat PC12 cells assessed as neurite bearing cells at 20 uM cotreated with 20 ng/ml NGF incubated for 48 hrs by methylene blue staining based light microscopy. The class given is functional.
Data set [15] deals with PC-12. Nature of the data set: Induction of neurite outgrowth in NGF-induced rat PC12 cells assessed as neurite bearing cells cotreated with 20 ng/ml NGF incubated for 48 hrs by light microscopy. The format is functional, cell-based.
Data set [16] relates to PC-12. The data set can be described thus: Induction of neurite outgrowth in rat PC12 cells assessed as neurite bearing cells in absence of 20 ng/ml NGF incubated for 48 hrs by light microscopy. The class given is functional, cell-based.
Data set [17] has as its system PC-12. Nature of the data set: Neuroprotective activity against 6-OHDA -induced toxicity in rat PC12 cells assessed as increase in cell viability at 10 uM pretreated for 24 hrs followed by 6-OHDA challenge and measured after 24 hrs by MTT assay. The format is functional, cell-based.
For data set [18], the system named is PC-12. Nature of the data set: Neuroprotective activity against H2O2-induced toxicity in rat PC12 cells assessed as increase in cell viability at 10 uM pretreated for 24 hrs followed by H2O2 challenge and measured after 24 hrs by MTT assay. The format is functional, cell-based.
Data set [19] has as its system PC-12. Nature of the data set: Induction of neurite outgrowth in NGF-induced rat PC12 cells assessed as neurite bearing cells at 5 to 10 uM cotreated with 20 ng/ml NGF incubated for 48 hrs by light microscopy. The format is functional, cell-based.
Data set [20] deals with PC-12. Nature of the data set: Cytotoxicity against rat PC12 cells assessed as reduction in cell viability incubated for 48 hrs. The class given is cell-based. The following applies: pc-12, 48 h.
Data set [21] has as its system BV-2. The data set can be described thus: Antiinflammatory activity in mouse BV2 cells assessed as reduction in LPS-induced NO production at 1 uM incubated for 24 hrs by Griess method relative to control. The class given is functional. The following applies: BV-2, 24 h.
The subject of data set [22] is BV-2. The data set can be described thus: Neuroprotective activity against microglia-conditioned medium-induced cytotoxicity in rat PC12 cells co-cultred with mouse BV2 cells assessed as increase in cell viability at 5 to 20 uM incubated for 4 hrs by MTT assay. The format is functional, cell-based.

As to `C=C1CC[C@@H]2[C@](C)(COC(C)=O)[C@H](OC(C)=O)CC[C@@]2(C)[C@@H]1C/C=C1\C=COC1=O`, the outcome in the data set on PC-12 [1], in the data set with PC-12 [2], in the data set on PC-12 [4] and in the data set with BV-2 [8] was inactive. The log partition coefficient (logP) (usually the decadic logarithm of the partition coefficient of the neutral form, usually between octanol and water) in data set [3] (read-out: logP) was determined as 3.87. For the same compound, the outcome in the data set on BV-2 [5], in the data set with BV-2 [7] and in the data set on BV-2 [9] was Active. The inhibition (in general, the relative decrease from the control value, in per cent) at 20 µM in the data set on BV-2 [6] was found to be 78%. For the same compound, the Activity result with BV-2 [10] was “Dose-dependent effect”; with BV-2 [12], “Dose-dependent effect”; in the data set with BV-2 [13] it was “Non-Toxic”. Besides, the inhibition entry in the data set on BV-2 [11] is “Dose-dependent effect”.

As to `C=C1CC[C@@H]2[C@](C)(CO[C@@H]3O[C@H](CO)[C@@H](O)[C@H](O)[C@H]3O)CCC[C@@]2(C)[C@@H]1CCC1=CCOC1=O` [NEOANDROGRAPHOLIDE], the Activity was 21.5% in the data set on PC-12 [14], “Dose-dependent effect” in the data set with PC-12 [15] and “Non-Toxic” in the data set on BV-2 [13]. Moreover, the result with PC-12 [1] and in the data set with PC-12 [2] was inactive. In [3] (read-out: logP), the logP was found to be 3.07. For the same compound, the inhibition entry with BV-2 [6] is “inactive”. Further, the result in the data set on PC-12 [16] was Active.

As to `C[C@@]1(CO)[C@H](O)CC[C@@]2(C)C3CC(C4=CCOC4=O)O[C@]3(C)CC[C@H]12` (stereo partly specified), the outcome with PC-12 [1], in the data set with PC-12 [2], in the data set with PC-12 [17] and in the data set on PC-12 [18] was Active. Further, the log partition coefficient (logP) in [3] (read-out: logP) was determined as 2.16. In addition, in the data set on PC-12 [4], the result was inactive. The inhibition entry in the data set on BV-2 [6] was “inactive”. Also, the Activity entry in the data set on BV-2 [13] is listed as “Non-Toxic”.

In the case of `C=C1CC[C@@H]2[C@](C)(CO)[C@H](O)CC[C@@]2(C)[C@@H]1C/C=C1/C(=O)OC[C@H]1O` [ANDROGRAPHOLIDE], the result with PC-12 [4] was Active. For the same compound, in the data set on BV-2 [6], the inhibition at 20 µM worked out at 76.7%.

Consider `C=C1CC[C@@H]2[C@](C)(COC(C)=O)[C@H](OC(C)=O)CC[C@@]2(C)[C@@H]1CCC1C(=O)OC[C@H]1OC(C)=O` (stereo partly specified), for which the result in the data set with PC-12 [1], with PC-12 [2] and in the data set on PC-12 [4] was inactive. Moreover, the log partition coefficient (logP) in data set [3] (read-out: logP) was determined as 3.71. Further, in the data set with BV-2 [6], the inhibition result is “Active”. Moreover, the Activity result in the data set with BV-2 [13] was “Non-Toxic”.

With `CC(=O)OC[C@@]1(C)[C@H]2CCC(C)=C(C[C@H](OC(C)=O)C3=CCOC3=O)[C@]2(C)CC[C@H]1OC(C)=O`, the result in the data set with PC-12 [1], in the data set on PC-12 [2], with BV-2 [5], with BV-2 [7], with BV-2 [9] and with BV-2 [22] was Active. In addition, in data set [3] (read-out: logP), the logP amounted to 2.96. The result in the data set on PC-12 [19] and in the data set with BV-2 [8] was inactive. Moreover, the Activity result with PC-12 [20] is “Toxic”; in the data set with BV-2 [10], “Dose-dependent effect”; in the data set with BV-2 [12], “Dose-dependent effect”; in the data set with BV-2 [13] it was “Non-Toxic”. Further, in the data set on BV-2 [6], the inhibition at 20 µM was 95.7%. Besides, in the data set with BV-2 [21], the inhibition at 1 µM was determined as 34.4%. In addition, the inhibition result with BV-2 [11] is “Dose-dependent effect”.

On to `C=C1CC[C@@H]2[C@](C)(COC(C)=O)[C@H](OC(C)=O)CC[C@@]2(C)[C@@H]1CCC1=CCOC1=O`, for which the outcome in the data set on PC-12 [1], in the data set on PC-12 [2] and with PC-12 [4] was inactive. Besides, in [3] (read-out: logP), the lipophilicity (logP) is 4.02. Further, the inhibition result in the data set on BV-2 [6] was “Active”. In addition, the Activity result with BV-2 [13] is given as “Non-Toxic”.

Turning to `C=C1CC[C@@H]2[C@](C)(CO)[C@H](O)CC[C@@]2(C)[C@@H]1/C=C/C1=CCOC1=O`, the Activity was 18.6% in the data set with PC-12 [14], “<=16.1%” with PC-12 [4], “Dose-dependent effect” in the data set on PC-12 [15] and “Non-Toxic” in the data set with BV-2 [13]. The outcome in the data set with PC-12 [1] and with PC-12 [2] was inactive. Also, the logP in data set [3] is listed as 3.23. In the data set with BV-2 [6], the inhibition result is “inactive”. In addition, the result in the data set on PC-12 [16] was Active.

With `C=C1CC[C@@H]2[C@](C)(COC(C)=O)[C@H](OC(C)=O)CC[C@@]2(C)[C@@H]1/C=C/C1=CCOC1=O`, the outcome in the data set on PC-12 [1], with PC-12 [2] and in the data set on PC-12 [4] was inactive. For the same compound, in [3] (read-out: logP), the logP is 3.83. For the same compound, the inhibition entry in the data set with BV-2 [6] is “Active”. For the same compound, the Activity entry with BV-2 [13] is on record as “Non-Toxic”.

On to `CC1=C(CCC2=CCOC2=O)[C@]2(C)CC[C@@H](O)[C@@](C)(CO)[C@H]2CC1`, for which the values for the Activity in the data set on PC-12 [14], with PC-12 [15] and in the data set on BV-2 [13] were 31.2%, “Dose-dependent effect” and “Non-Toxic”, respectively. Also, the result with PC-12 [1] and with PC-12 [2] was inactive. Also, the logP in data set [3] (read-out: logP) was 2.9. Also, the outcome in the data set with PC-12 [4] and with PC-12 [16] was Active. The inhibition entry in the data set on BV-2 [6] is “inactive”.

`C=C1CC[C@@H]2[C@](C)(CO)[C@H](O)CC[C@@]2(C)[C@@H]1CCC1C(=O)OC[C@H]1O` (stereo partly specified): the outcome in the data set with PC-12 [1], in the data set on PC-12 [2] and with PC-12 [4] was inactive. Further, in [3] (read-out: logP), the log partition coefficient (logP) was 2.54. Further, the inhibition result with BV-2 [6] is “inactive”. The Activity result with BV-2 [13] is given as “Non-Toxic”.

Take `C=C1CC[C@@H]2[C@](C)(CO)[C@H](O)CC[C@@]2(C)[C@@H]1C/C=C1\C=COC1=O`: the outcome in the data set on PC-12 [1], with PC-12 [2] and in the data set with PC-12 [4] was inactive. For the same compound, the log partition coefficient (logP) in [3] (read-out: logP) was 3.28. For the same compound, the inhibition entry in the data set on BV-2 [6] was “inactive”. Moreover, in the data set on BV-2 [13], the Activity entry was “Non-Toxic”.

`C=C1CC[C@@H]2[C@](C)(CO)[C@H](O)CC[C@@]2(C)[C@@H]1CCC1=CCOC1=O` [DEOXYANDROGRAPHOLIDE]: the outcome in the data set on PC-12 [1], with PC-12 [2] and with PC-12 [4] was inactive. In data set [3] (read-out: logP), the logP amounted to 3.43. Besides, the inhibition entry in the data set with BV-2 [6] was “inactive”. Further, the Activity entry in the data set with BV-2 [13] is “Non-Toxic”.

The values are drawn from ChEMBL document CHEMBL4340541, “Synthesis of andrographolide analogues and their neuroprotection and neurite outgrowth-promoting activities” (Bioorg Med Chem, 2019).
